Assay results from patent US20260250318A1, “COMPOSITIONS AND METHODS FOR CROSSING THE BLOOD BRAIN BARRIER” (VOYAGER THERAPEUTICS, INC., priority 2022, published 2026).

Tests used:
[1] = system: brains, heart, liver, muscle, and DRG of the NHPs; experiment: Maturation of TTM-001 and TTM-002 capsids, NGS enrichment in NHP tissues; type: in vivo; conditions: relative to AAV9 control
Procedure, shortened: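 Variants carry mutations within and flanking the loop IV peptide insert: positions 450–466 were triplet-randomized, while positions 449–466 received low-frequency point mutations. The combined pool went into two NHPs, and each peptide was scored by NGS enrichment ratio against AAV9.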

brain = experiment: Matured TTM-001 and TTM-002 variants, NGS enrichment in mouse brain; type: in vivo, mice; conditions: relative to AAV9 control
[2] = NGS fold-enrichment of matured AAV capsid variants, NHP brain, RNA
[3] = NGS fold-enrichment of RNA, NHP brain
[4] = NGS fold-enrichment, NHP liver DNA
[5] = NGS fold-enrichment, NHP liver RNA
[6] = NGS fold-enrichment, NHP muscle
[7] = NGS fold-enrichment, mouse brain
[8] = NGS fold-enrichment, DRG of NHPs
[9] = NGS fold-enrichment, RNA, brain of NHPs
[10] = NGS fold-enrichment, heart of NHPs
[11] = NGS fold-enrichment, liver DNA of NHPs
[12] = NGS fold-enrichment, liver RNA of NHPs
[13] = NGS fold-enrichment, muscle of NHPs
[14] = NGS fold-enrichment, brain of mice

Sequence | Fold Enrichment relative to AAV9, Brain (NHP) [1, 2] | Fold Enrichment relative to AAV9, DRG (NHP) ([1]; NHP DRG) | Fold Enrichment relative to AAV9, Heart (NHP) ([1]; NHP heart) | Fold Enrichment relative to AAV9, Liver DNA (NHP) ([1]; NHP liver, DNA) | Fold Enrichment relative to AAV9, Liver RNA (NHP) ([1]; NHP liver, RNA) | Fold Enrichment relative to AAV9, Muscle (NHP) ([1]; NHP muscle) | Fold Enrichment relative to AAV9, Brain (Mouse) (brain; mouse brain) | Fold Enrichment relative to AAV9, Brain (NHP) [1, 3] | Fold Enrichment relative to AAV9, DRG (NHP) ([1]; NGS fold-enrichment, NHP DRG) | Fold Enrichment relative to AAV9, Heart (NHP) ([1]; NGS fold-enrichment, NHP heart) | Fold Enrichment relative to AAV9, Liver DNA (NHP) [1, 4] | Fold Enrichment relative to AAV9, Liver RNA (NHP) [1, 5] | Fold Enrichment relative to AAV9, Muscle (NHP) [1, 6] | Fold Enrichment relative to AAV9, Brain (Mouse) (brain; [7]) | Fold Enrichment relative to AAV9, DRG (NHP) [1, 8] | Fold Enrichment relative to AAV9, Brain (NHP) [1, 9] | Fold Enrichment relative to AAV9, Heart (NHP) [1, 10] | Fold Enrichment relative to AAV9, Liver DNA (NHP) [1, 11] | Fold Enrichment relative to AAV9, Liver RNA (NHP) [1, 12] | Fold Enrichment relative to AAV9, Muscle (NHP) [1, 13] | further results
KTNNGGGSPHSKAQNLQT | 54.963 fold | 0.000 fold | 0.000 fold | 0.089 fold | 0.000 fold | 0.000 fold | 80.506 fold |  |  |  |  |  |  |  |  |  |  |  |  |  | 
KTNNGHDSPHKSVQNQHT |  |  |  |  |  |  |  | 115.172 fold | 0.000 fold | 0.083 fold | 0.062 fold | 0.000 fold | 0.000 fold | 7.934 fold |  |  |  |  |  |  | 
KTNNGSGSPHSKAQNQQY |  |  |  |  |  |  |  |  |  |  |  |  |  |  | 0.000 fold | 68.530 fold | 0.040 fold | 0.059 fold | 0.000 fold | 0.000 fold | Fold Enrichment relative to AAV9, Brain (Mouse) (brain; [14]): 82.656 fold
KTRDASGSPHSKAQNQQT | 52.861 fold | 0.000 fold | 0.000 fold | 0.402 fold | 1.062 fold | 0.010 fold | 52.089 fold |  |  |  |  |  |  |  |  |  |  |  |  |  | 
KTREISGSPHSKAQNQQT | 59.027 fold | 0.000 fold | 0.042 fold | 0.269 fold | 0.356 fold | 0.224 fold | 51.696 fold |  |  |  |  |  |  |  |  |  |  |  |  |  | 
KTSNASGSPHSKAHNQQT |  |  |  |  |  |  |  |  |  |  |  |  |  |  | 0.000 fold | 59.607 fold | 0.078 fold | 0.050 fold | 0.031 fold | 0.067 fold | Fold Enrichment relative to AAV9, Brain (Mouse) (brain; [14]): 67.967 fold
KTSNASGSPHSKAQHQQT |  |  |  |  |  |  |  | 165.206 fold | 0.000 fold | 0.000 fold | 0.082 fold | 0.000 fold | 0.000 fold | 40.558 fold |  |  |  |  |  |  | 
KTSNASGSPHSKAQNQLT |  |  |  |  |  |  |  |  |  |  |  |  |  |  | 0.000 fold | 73.501 fold | 0.000 fold | 0.313 fold | 0.000 fold | 0.297 fold | Fold Enrichment relative to AAV9, Brain (Mouse) (brain; [14]): 150.401 fold
KTSNESGSPHSKAQNHQT |  |  |  |  |  |  |  | 75.720 fold | 0.000 fold | 0.000 fold | 0.217 fold | 0.169 fold | 0.000 fold | 70.590 fold | 0.000 fold | 75.720 fold | 0.000 fold | 0.217 fold | 0.169 fold | 0.000 fold | Fold Enrichment relative to AAV9, Brain (Mouse) (brain; [14]): 70.590 fold
KTSNGGGSPHSKAQNLQT |  |  |  |  |  |  |  |  |  |  |  |  |  |  | 0.000 fold | 68.311 fold | 0.052 fold | 0.000 fold | 0.000 fold | 0.000 fold | Fold Enrichment relative to AAV9, Brain (Mouse) (brain; [14]): 124.871 fold
KTSNGHDSPHKSGQNQPA |  |  |  |  |  |  |  | 75.834 fold | 0.000 fold | 0.056 fold | 0.000 fold | 0.000 fold | 0.000 fold | 8.501 fold |  |  |  |  |  |  | 
KTSNGSGSPHSKAHYQQT | 54.414 fold | 0.000 fold | 0.251 fold | 0.204 fold | 0.249 fold | 0.000 fold | 54.162 fold |  |  |  |  |  |  |  |  |  |  |  |  |  | 
KTSNGSGSPHSKAQNLQI | 52.843 fold | 0.000 fold | 0.000 fold | 0.214 fold | 0.178 fold | 1.605 fold | 74.823 fold |  |  |  |  |  |  |  |  |  |  |  |  |  | 
KTSNGSGSPHSKAQNPPT |  |  |  |  |  |  |  | 91.528 fold | 0.000 fold | 0.000 fold | 0.039 fold | 0.000 fold | 0.000 fold | 51.541 fold | 0.000 fold | 91.528 fold | 0.000 fold | 0.039 fold | 0.000 fold | 0.000 fold | Fold Enrichment relative to AAV9, Brain (Mouse) (brain; [14]): 51.541 fold
KTSNGSGSPHSKAQNQST | 53.353 fold | 0.000 fold | 0.000 fold | 0.014 fold | 0.000 fold | 0.000 fold | 120.897 fold |  |  |  |  |  |  |  |  |  |  |  |  |  | 
KTSNGSGSPHSKAQNYQT | 57.894 fold | 0.000 fold | 0.082 fold | 0.110 fold | 0.000 fold | 0.000 fold | 63.681 fold |  |  |  |  |  |  |  |  |  |  |  |  |  | 
KTSNGYDSPHKSGQKQQT |  |  |  |  |  |  |  | 77.001 fold | 0.032 fold | 0.286 fold | 0.016 fold | 0.000 fold | 0.000 fold | 8.813 fold |  |  |  |  |  |  | 
